This passage reports IC50 results from patent US9353093B2, “Indole-1-carboxamides as kinase inhibitors” (Allergan, Inc., priority 2014, dated 2016).

Like-named read-outs stand apart in the source and are kept apart here.

Usually IC50 stands for the midpoint of a concentration-inhibition curve.

For experiment [1], the system named is VEGFR2 in HUVEC (human umbilical vein endothelial cells). The experiment in a line: VEGFR2 Cellular Assay (FLIPR, VEGF induced increases in intracellular calcium). Format: cell-based. As for the experimental part:
VEGFR2 Cellular Assay Automated FLIPR (Fluorometric Imaging Plate Reader) technology was used to screen for inhibitors of VEGF induced increases in intracellular calcium levels in fluorescent dye loaded endothelial cells. HUVEC (human umbilical vein endothelial cells) (Clonetics) were seeded in 384-well fibronectin coated black-walled plates overnight @37° C./5% CO2. Cells were loaded with calcium indicator Fluo-4 for 45 minutes at 37° C. Cells were washed 2 times (EIx405, Biotek Instruments) to remove extracellular dye. For screening, cells were pre-incubated with test agents for 30 minutes, at a single concentration (10 uM) or at concentrations ranging from 0.0001 to 10.0 uM followed by VEGF165 stimulation (10 ng/mL). Changes in fluorescence at 516 nm were measured simultaneously in all 384 wells using a cooled CCD camera. Data were generated by determining max-min fluorescence levels for unstimulated, stimulated, and drug treated samples. IC50 values for test compounds were calculated from % inhibition of VEGF stimulated responses in the absence of inhibitor.
(In general: A change in cytosolic calcium serves as a functional read-out for many receptors and channels.)

Experiment [2] deals with purified cytoplasmic domain KDR protein (VEGFR2) (Homo sapiens (Human), UniProt P35968). Nature of the experiment: VEGFR2 Kinase Assay. It counts as biochemical. The note with it: 2.7 μM ATP, poly-Glu-Tyr (4:1) substrate, 15 minute incubation at 30° C.; read-out: Enzyme VEGFR2 IC50. As for the experimental part: VEGFR2 Kinase Assay Biochemical KDR kinase assays were performed in 96 well microtiter plates that were coated overnight with 75 μg/well of poly-Glu-[…]:1) in 10 mM Phosphate Buffered Saline (PBS), pH 7.4. […] Reactions were carried out in 100 μL reaction volumes containing 2.7 μM ATP in kinase buffer (50 mM Hepes buffer pH 7.4, 20 mM MgCl2, 0.1 mM MnCl2 and 0.2 mM Na3VO4). […] Reactions were initiated by the addition 20 ul per well of kinase buffer containing 200-300 ng purified cytoplasmic domain KDR protein (BPS Bioscience, San Diego, Calif.). Following a 15 minute incubation at 30° C., the reactions were washed 2 mls per well PBS-T. 100 μl of a monoclonal anti-phosphotyrosine antibody-peroxidase conjugate diluted 1:10,000 in PBS-T was added to the wells for 30 minutes. Following a 2 mls per well wash with PBS-Tween-20, 100 μl of O-Phenylenediamine Dihydrochloride in phosphate-citrate buffer, containing urea hydrogen peroxide, was added to the wells for 7-10 minutes as a colorimetric substrate for the peroxidase. […] IC50 values for compound inhibition were calculated directly from graphs of optical density (arbitrary units) versus compound concentration following subtraction of blank values.
Sequence of purified cytoplasmic domain KDR protein (VEGFR2) (P35968 786-1356): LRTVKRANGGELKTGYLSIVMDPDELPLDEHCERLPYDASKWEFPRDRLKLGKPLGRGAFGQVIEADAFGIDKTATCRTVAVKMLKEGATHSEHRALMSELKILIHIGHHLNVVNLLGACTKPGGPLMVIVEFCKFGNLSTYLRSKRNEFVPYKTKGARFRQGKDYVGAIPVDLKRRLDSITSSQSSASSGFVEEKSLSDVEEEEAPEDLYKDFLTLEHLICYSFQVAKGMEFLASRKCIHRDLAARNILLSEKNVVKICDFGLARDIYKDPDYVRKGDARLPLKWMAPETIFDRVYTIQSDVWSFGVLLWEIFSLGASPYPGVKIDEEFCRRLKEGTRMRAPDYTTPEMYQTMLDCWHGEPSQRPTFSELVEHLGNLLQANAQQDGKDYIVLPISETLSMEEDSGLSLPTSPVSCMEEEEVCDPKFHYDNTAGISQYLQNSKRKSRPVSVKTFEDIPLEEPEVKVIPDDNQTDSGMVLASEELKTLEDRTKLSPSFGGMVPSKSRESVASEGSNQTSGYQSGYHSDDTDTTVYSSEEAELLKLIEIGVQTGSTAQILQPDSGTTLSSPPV

The target of experiment [3] is purified cytoplasmic domain PDGFR-b protein (PDGFRβ) (Homo sapiens (Human), UniProt P09619). The experiment in a line: PDGFRβ Kinase Assay. It counts as biochemical. The note with it: 36 μM ATP, poly-Glu-Tyr (4:1) substrate, 60 minute incubation at 30° C.; read-out: Enzyme PDGFβ IC50. As for the experimental part: Biochemical PDGFRβ kinase assays were performed in 96 well microtiter plates that were coated overnight with 75 μg of poly-Glu-Tyr (4:1) in 10 mM Phosphate Buffered Saline (PBS), pH 7.4. […] Reactions were carried out in 100 μL reaction volumes containing 36 μM ATP in kinase buffer (50 mM Hepes buffer pH 7.4, 20 mM MgCl2, 0.1 mM MnCl2 and 0.2 mM Na3VO4). […] Reactions were initiated by the addition 20 ul per well of kinase buffer containing 200-300 ng purified cytoplasmic domain PDGFR-b protein (Millipore). Following a 60 minute incubation at 30° C., the reactions were washed 2 mls per well PBS-T. 100 μl of a monoclonal anti-phosphotyrosine antibody-peroxidase conjugate diluted 1:10,000 in PBS-T was added to the wells for 30 minutes. Following a 2 mls per well wash with PBS-Tween-20, 100 μl of O-Phenylenediamine Dihydrochloride in phosphate-citrate buffer, containing urea hydrogen peroxide, was added to the wells for 7-10 minutes as a colorimetric substrate for the peroxidase. […] IC50 values for compound inhibition were calculated directly from graphs of optical density (arbitrary units) versus compound concentration following subtraction of blank values.
Sequence of purified cytoplasmic domain PDGFR-b protein (PDGFRβ) (P09619 554-1106): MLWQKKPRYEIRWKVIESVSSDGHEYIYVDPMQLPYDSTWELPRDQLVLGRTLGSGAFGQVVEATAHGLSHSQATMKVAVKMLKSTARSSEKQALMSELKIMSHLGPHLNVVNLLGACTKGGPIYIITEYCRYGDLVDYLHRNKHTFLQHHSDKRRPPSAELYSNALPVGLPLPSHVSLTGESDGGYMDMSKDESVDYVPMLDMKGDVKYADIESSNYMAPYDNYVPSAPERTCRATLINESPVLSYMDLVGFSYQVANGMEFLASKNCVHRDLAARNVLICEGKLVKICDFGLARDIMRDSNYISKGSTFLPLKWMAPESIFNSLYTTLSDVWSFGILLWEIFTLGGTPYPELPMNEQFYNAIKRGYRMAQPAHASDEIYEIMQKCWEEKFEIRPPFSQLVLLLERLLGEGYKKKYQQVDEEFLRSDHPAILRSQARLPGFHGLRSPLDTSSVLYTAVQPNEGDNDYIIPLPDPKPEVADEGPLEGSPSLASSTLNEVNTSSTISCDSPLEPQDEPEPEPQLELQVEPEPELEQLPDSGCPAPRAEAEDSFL

[4] abbreviates: read-out: Receptor VEGFR2 IC50 (nM).

Turning to `CCc1cccc(NC(=O)Nc2ccc(-c3cc4ccccc4n3C(N)=O)cc2)c1` [Example 1, 2-[4-({[(3-ethylphenyl)amino]carbonyl}amino)phenyl]-1H-indole-1-carboxamide], in experiment [1] (setting [4]), the IC50 stood at 13 nM. For `COC(=O)c1ccc2cc(-c3ccc(NC(=O)Nc4cccc(C)c4)cc3)n(C(N)=O)c2c1` [Example 2, methyl 1-(aminocarbonyl)-2-[4-({[(3-methylphenyl)amino]carbonyl}amino)phenyl]-1H-indole-6-carboxylate], the IC50 in experiment [1] (setting [4]) was 11 nM; in experiment [2] it was 0.005 µM; in experiment [3], 0.01 µM. For `Cc1cccc(NC(=O)Nc2ccc(-c3cc4ccccc4n3C(N)=O)cc2)c1` [Example 3, 2-[4-({[(3-methylphenyl)amino]carbonyl}amino)phenyl]-1H-indole-1-carboxamide], in that order: 17 nM, 0.006 µM and 0.014 µM.

On to `NC(=O)n1c(-c2ccc(NC(=O)Nc3ccc(F)c(Cl)c3)cc2)cc2ccccc21` [Example 5, 2-[4-({[(3-chloro-4-fluorophenyl)amino]carbonyl}amino)phenyl]-1H-indole-1-carboxamide], for which the IC50 in experiment [3] came to 0.019 µM. Take `NC(=O)n1c(-c2ccc(NC(=O)Nc3cccc(C(F)(F)F)c3)cc2)cc2ccccc21` [Example 6, 2-{4-[({[3-(trifluoromethyl)phenyl]amino}carbonyl)amino]phenyl}-1H-indole-1-carboxamide]: the IC50 in experiment [1] (setting [4]) was 58 nM; in experiment [2], 0.009 µM; in experiment [3] it was 0.028 µM. For `Cc1ccc(F)c(NC(=O)Nc2ccc(-c3cc4ccccc4n3C(N)=O)cc2)c1` [Example 7, 2-[4-({[(2-fluoro-5-methylphenyl)amino]carbonyl}amino)phenyl]-1H-indole-1-carboxamide], in that order: 41 nM, 0.009 µM and 0.02 µM. For `COc1cccc(NC(=O)Nc2ccc(-c3cc4ccccc4n3C(N)=O)cc2)c1` [Example 8, 2-[4-({[(3-methoxyphenyl)amino]carbonyl}amino)phenyl]-1H-indole-1-carboxamide], in that order: 45 nM, 0.011 µM and 0.012 µM. `NC(=O)n1c(-c2ccc(NC(=O)Nc3cc(C(F)(F)F)ccc3F)cc2)cc2ccccc21` [Example 9, 2-{4-[({[2-fluoro-5-(trifluoromethyl)phenyl]amino}carbonyl)amino]phenyl}-1H-indole-1-carboxamide]: in experiment [3], the IC50 came out at 0.055 µM. As to `NC(=O)n1c(-c2ccc(NC(=O)Nc3ccccc3)cc2)cc2ccccc21` [Example 10, 2-{4-[(anilinocarbonyl)amino]phenyl}-1H-indole-1-carboxamide], the IC50 in experiment [1] (setting [4]) is 150 nM; in experiment [2], 0.022 µM; in experiment [3], 0.023 µM. As for `Cc1ccc(NC(=O)Nc2ccc(-c3cc4ccccc4n3C(N)=O)cc2)cc1` [Example 11, 2-[4-({[(4-methylphenyl)amino]carbonyl}amino)phenyl]-1H-indole-1-carboxamide], the IC50 in experiment [1] (VEGF165 stimulation (10 ng/mL), 30 minutes pre-incubation, Fluo-4 calcium, read-out: Receptor VEGFR2 IC50) was more than 10000 nM; in experiment [2], 0.023 µM; in experiment [3], 0.011 µM. In the case of `Cc1ccccc1NC(=O)Nc1ccc(-c2cc3ccccc3n2C(N)=O)cc1` [Example 12, 2-[4-({[(2-methylphenyl)amino]carbonyl}amino)phenyl]-1H-indole-1-carboxamide], the figures for the IC50 in experiment [2] and in experiment [3] were 0.174 µM and 0.118 µM, respectively. Regarding `Cc1cccc(NC(=O)Nc2cccc(-c3cc4ccccc4n3C(N)=O)c2)c1` [Example 19, 2-[3-({[(3-methylphenyl)amino]carbonyl}amino)phenyl]-1H-indole-1-carboxamide], the 50% inhibitory concentration (IC50) in experiment [2] worked out at 0.276 µM. Still for that read-out and setting: next, `CCc1cccc(NC(=O)Nc2cccc(-c3cc4ccccc4n3C(N)=O)c2)c1` [Example 20, 2-[3-({[(3-ethylphenyl)amino]carbonyl}amino)phenyl]-1H-indole-1-carboxamide]: 0.24 µM. For `NC(=O)n1c(-c2cccc(NC(=O)Nc3cccc(C(F)(F)F)c3)c2)cc2ccccc21` [Example 21, 2-{3-[({[3-(trifluoromethyl)phenyl]amino}carbonyl)amino]phenyl}-1H-indole-1-carboxamide], the IC50 in experiment [2] worked out at 0.254 µM; in experiment [3] it was 3.31 µM.

For the compound `NC(=O)n1c(-c2cccc(NC(=O)Nc3ccc(F)c(Cl)c3)c2)cc2ccccc21` [Example 22, 2-[3-({[(3-chloro-4-fluorophenyl)amino]carbonyl}amino)phenyl]-1H-indole-1-carboxamide], the values for the IC50 in experiment [2] and in experiment [3] were 0.249 µM and more than 10 µM, respectively. Take `Cc1ccc(F)c(NC(=O)Nc2cccc(-c3cc4ccccc4n3C(N)=O)c2)c1` [Example 23, 2-[3-({[(2-fluoro-5-methylphenyl)amino]carbonyl}amino)phenyl]-1H-indole-1-carboxamide]: the figures for the IC50 in experiment [2] and in experiment [3] were 0.334 µM and 3.03 µM, respectively. As to `Cc1cccc(C(=O)Nc2cccc(-c3cc4ccccc4n3C(N)=O)c2)c1` [Example 24, 2-{3-[(3-methylbenzoyl)amino]phenyl}-1H-indole-1-carboxamide], the IC50 in experiment [2] is 1.17 µM. In the case of `Cc1cccc(NC(=O)Nc2csc(-c3cc4ccccc4n3C(N)=O)c2)c1` [Example 26, 2-[4-({[(3-methylphenyl)amino]carbonyl}amino)-2-thienyl]-1H-indole-1-carboxamide], the IC50 in experiment [3] turned out to be 1.14 µM. For `NC(=O)n1c(-c2cc(NC(=O)Nc3cccc(C(F)(F)F)c3)cs2)cc2ccccc21` [Example 27, 2-{4-[({[3-(trifluoromethyl)phenyl]amino}carbonyl)amino]-2-thienyl}-1H-indole-1-carboxamide], the half-inhibitory concentration (IC50) in experiment [3] was determined as 0.152 µM. `CCc1cccc(NC(=O)Nc2csc(-c3cc4ccccc4n3C(N)=O)c2)c1` [Example 28, 2-[4-({[(3-ethylphenyl)amino]carbonyl}amino)-2-thienyl]-1H-indole-1-carboxamide]: the IC50 in experiment [2] turned out to be 0.06 µM; in experiment [3] it was 0.264 µM. For `Cc1ccc(F)c(NC(=O)Nc2csc(-c3cc4ccccc4n3C(N)=O)c2)c1` [Example 29, 2-[4-({[(2-fluoro-5-methylphenyl)amino]carbonyl}amino)-2-thienyl]-1H-indole-1-carboxamide], in that order: 0.094 µM and 4.61 µM.

Regarding `NC(=O)n1c(-c2cc(NC(=O)Nc3ccc(F)c(Cl)c3)cs2)cc2ccccc21` [Example 30, 2-[4-({[(3-chloro-4-fluorophenyl)amino]carbonyl}amino)-2-thienyl]-1H-indole-1-carboxamide], the IC50 in experiment [2] was 0.083 µM; in experiment [3] it was more than 10 µM. For the compound `NC(=O)n1c(-c2cc(NC(=O)Nc3ccc(Cl)c(C(F)(F)F)c3)cs2)cc2ccccc21` [Example 31, 2-{4-[({[4-chloro-3-(trifluoromethyl)phenyl]amino}carbonyl)amino]-2-thienyl}-1H-indole-1-carboxamide], the IC50 in experiment [3] is 0.151 µM. For `Cc1ccoc1C(=O)Nc1csc(-c2cc3ccccc3n2C(N)=O)c1` [Example 32, 2-{4-[(3-methyl-2-furoyl)amino]-2-thienyl}-1H-indole-1-carboxamide], the IC50 in experiment [2] is 3.19 µM; in experiment [3] it was more than 10 µM. As to `Cc1ccc(F)c(C(=O)Nc2csc(-c3cc4ccccc4n3C(N)=O)c2)c1` [Example 33, 2-{4-[(2-fluoro-5-methylbenzoyl)amino]-2-thienyl}-1H-indole-1-carboxamide], the values for the IC50 in experiment [2] and in experiment [3] were 3.65 µM and more than 10 µM, respectively.
